Values of other authors as cited in US10610500B2, “Chemosensory receptor ligand-based therapies” (Anji Pharma (US) LLC, priority 2011, dated 2020).

Target: T1, sweet receptor (Homo sapiens, UniProt Q7RTX0+Q8TE23)
T1 sequence (Q8TE23 20-839): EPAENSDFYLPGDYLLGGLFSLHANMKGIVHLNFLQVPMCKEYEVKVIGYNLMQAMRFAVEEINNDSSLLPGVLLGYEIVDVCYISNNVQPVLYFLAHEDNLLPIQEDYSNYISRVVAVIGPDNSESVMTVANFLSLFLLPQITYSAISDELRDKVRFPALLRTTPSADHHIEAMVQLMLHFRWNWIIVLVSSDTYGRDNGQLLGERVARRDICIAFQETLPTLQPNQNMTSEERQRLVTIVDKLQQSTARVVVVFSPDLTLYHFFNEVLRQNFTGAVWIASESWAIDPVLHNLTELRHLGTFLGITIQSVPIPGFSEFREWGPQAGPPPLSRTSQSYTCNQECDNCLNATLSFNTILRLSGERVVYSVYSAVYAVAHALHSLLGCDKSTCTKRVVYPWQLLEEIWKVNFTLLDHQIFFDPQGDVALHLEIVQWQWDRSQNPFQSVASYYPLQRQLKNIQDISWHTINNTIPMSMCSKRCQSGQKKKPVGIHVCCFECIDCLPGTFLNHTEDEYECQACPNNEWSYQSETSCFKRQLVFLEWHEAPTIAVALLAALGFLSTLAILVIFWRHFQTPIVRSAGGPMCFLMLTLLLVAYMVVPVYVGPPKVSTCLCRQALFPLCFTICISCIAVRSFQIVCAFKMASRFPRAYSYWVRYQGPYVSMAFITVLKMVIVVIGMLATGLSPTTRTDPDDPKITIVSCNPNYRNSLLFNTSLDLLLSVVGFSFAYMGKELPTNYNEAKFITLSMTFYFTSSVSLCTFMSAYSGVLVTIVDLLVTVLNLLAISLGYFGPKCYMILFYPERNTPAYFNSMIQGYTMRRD
T1 sequence (Q7RTX0 21-852): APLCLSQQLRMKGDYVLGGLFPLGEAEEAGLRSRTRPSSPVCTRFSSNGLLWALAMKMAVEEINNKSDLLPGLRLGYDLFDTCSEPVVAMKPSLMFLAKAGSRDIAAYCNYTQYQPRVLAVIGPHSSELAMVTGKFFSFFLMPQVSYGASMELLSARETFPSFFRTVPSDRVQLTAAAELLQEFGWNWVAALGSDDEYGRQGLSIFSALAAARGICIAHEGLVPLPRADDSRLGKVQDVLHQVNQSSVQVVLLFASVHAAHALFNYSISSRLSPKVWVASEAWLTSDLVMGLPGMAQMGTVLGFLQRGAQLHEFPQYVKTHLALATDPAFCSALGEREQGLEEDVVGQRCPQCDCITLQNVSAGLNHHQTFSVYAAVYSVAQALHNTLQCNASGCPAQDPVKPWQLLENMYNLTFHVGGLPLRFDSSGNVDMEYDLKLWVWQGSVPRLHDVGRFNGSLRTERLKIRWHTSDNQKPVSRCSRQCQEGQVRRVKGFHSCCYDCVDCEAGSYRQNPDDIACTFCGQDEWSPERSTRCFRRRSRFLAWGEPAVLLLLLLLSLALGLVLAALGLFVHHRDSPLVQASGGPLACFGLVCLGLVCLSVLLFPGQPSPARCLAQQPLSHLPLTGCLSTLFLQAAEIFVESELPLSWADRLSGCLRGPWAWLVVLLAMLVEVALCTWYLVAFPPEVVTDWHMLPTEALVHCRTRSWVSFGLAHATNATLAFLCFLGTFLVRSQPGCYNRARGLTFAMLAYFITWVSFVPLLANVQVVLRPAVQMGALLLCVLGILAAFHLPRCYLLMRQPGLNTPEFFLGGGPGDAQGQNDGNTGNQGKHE
Details: relative sweetness on a weight comparison basis to sucrose (=1.0); ranges: relative sweetness varied with the concentration of sucrose

Molecule	Sweetness/potency
COc1c(O)cc2c(c1O)C(=O)[C@H](O)[C@@H](c1ccc(O)c(O)c1)O2 [(2R,3R)-2,3-Dihydro-5,7,3',4'-tetrahydroxy-6-methoxyflavonol]	15
CC(C)=CCC[C@](C)(O)[C@@H]1CCC(C)=CC1=O [(+)-Hernandulcin]	1,500
COc1c(O)cc2c(c1O)C(=O)[C@H](OC(C)=O)[C@@H](c1ccc(O)cc1)O2 [(2R,3R)-2,3-Dihydro-5,7,4'-trihydroxy-6-methoxy-3-O-acetylflavonol]	20
CC1=CC[C@@H]([C@@H](C)[C@H]2CC[C@@]3(C)[C@@H]4CC[C@H]5[C@](C)(C(=O)O)[C@@H](O[C@@H]6O[C@H](CO)[C@@H](O)[C@H](O)[C@H]6O[C@@H]6O[C@H](CO)[C@@H](O)[C@H](O)[C@H]6O)CC[C@@]56C[C@@]46CC[C@]23C)OC1=O [Abrusoside C]	50
CC1=CC[C@@H]([C@@H](C)[C@H]2CC[C@@]3(C)[C@@H]4CC[C@H]5[C@](C)(C(=O)O)[C@@H](O[C@@H]6O[C@H](CO)[C@@H](O)[C@H](O)[C@H]6O[C@@H]6O[C@H](C(=O)O)[C@@H](O)[C@H](O)[C@H]6O)CC[C@@]56C[C@@]46CC[C@]23C)OC1=O [Abrusoside D]	75
Cyclocarioside A	200
CC1(C)C[C@H]2C3=CC[C@@H]4[C@@]5(C)CC[C@H](O[C@@H]6O[C@H](CO[C@@H]7OC[C@H](O)[C@H](O)[C@H]7O[C@@H]7OC[C@@H](O)[C@H](O)[C@H]7O)[C@@H](O)[C@H](O)[C@H]6O)C(C)(C)[C@@H]5CC[C@@]4(C)[C@]3(C)C[C@@H](O)[C@@]23C[C@@H]1OC3=O [Albiziasaponin A]	5
CC1(C)[C@@H](O[C@H]2O[C@H](C(=O)O)[C@@H](O)[C@H](O)[C@H]2O[C@@H]2OC[C@H](O)[C@H](O)[C@H]2O)CC[C@]2(C)[C@H]3C(=O)C=C4[C@@H]5C[C@@](C)(C(=O)O)CC[C@]5(C)CC[C@@]4(C)[C@]3(C)CC[C@@H]12 [Araboglycyrrhizin]	150
Carnosifloside V	51
CC1(C(=O)O)CCC2(C)CCC3(C)C(=CC(=O)C4C5(C)CCC(OC6OC(C(=O)O)C(O)C(O)C6OC6OCC(O)(CO)C6O)C(C)(C)C5CCC43C)C2C1 (stereo not shown) [Apioglycyrrhizin]	300
CC1=CC[C@@H]([C@@H](C)[C@H]2CC[C@@]3(C)[C@@H]4CC[C@H]5[C@](C)(C(=O)O)[C@@H](O[C@@H]6O[C@H](CO)[C@@H](O)[C@H](O)[C@H]6O)CC[C@@]56C[C@@]46CC[C@]23C)OC1=O [Abrusoside A]	30
O=C/C=C/c1ccccc1 [Trans-Cinnamaldehyde]	50
Albiziasaponin B	600
Brazzein: sweet protein of Pentadiplandra brazzeana Baillon (QDKCKKVYENYPVSKCQLANQCNYDCKLDKHARSGECFYDEKRNLQCICDYCEY; UniProt P56552 1-54, looked up)	2,000
COc1c(O)cc2c(c1O)C(=O)[C@H](OC(C)=O)[C@@H](c1ccc(O)c(O)c1)O2 [(2R,3R)-2,3-Dihydro-5,7,3',4'-tetrahydroxy-6-methoxy-3-O-acetylflavonol]	25
C/C(=C\CC[C@@H](C)[C@H]1CC[C@@]2(C)[C@@H]3CC=C4[C@@H](CC[C@H](O[C@@H]5O[C@H](CO)[C@@H](O)[C@H](O)[C@H]5O)C4(C)C)[C@]3(C)[C@H](O)C[C@]12C)CO[C@@H]1O[C@H](CO[C@@H]2O[C@H](CO)[C@@H](O)[C@H](O)[C@H]2O)[C@@H](O)[C@H](O)[C@H]1O [Carnosifloside VI]	77

Second part, the molecule after the results:

Sweetness/potency	Molecule
100	C=C(C)C1CCC2(C)C(CC(OC3OCC(O)C(O)C3O)C3C(C(C)(O)C/C=C/C(C)(C)O)CCC32C)C1(C)CCC(=O)O (stereo not shown) [Pterocaryoside B]
50	Pterocaryoside A
92	CC1(C(=O)O)C=C2C3CCC4C5(CO)CCC(OC6OC(C(=O)O)C(O)C(O)C6OC6OC(C(=O)O)C(O)C(O)C6O)C(C)(C)C5CCC4(C)C3(C)CCC2(C)CC1 (stereo not shown) [Periandrin III]
13	C/C=C/c1ccc(OC)cc1 [trans-Anethole]
30	C=C1C[C@@]23CC[C@H]4[C@@](C)(CCC[C@@]4(C)C(=O)O[C@@H]4O[C@H](CO)[C@@H](O)[C@H](O)[C@H]4O)[C@@H]2CC[C@]1(O[C@@H]1O[C@H](CO)[C@@H](O)[C@H](O)[C@H]1O[C@@H]1O[C@@H](C)[C@H](O)[C@@H](O)[C@H]1O)C3 [Dulcoside A]
1000	CC[C@@H](C)C(=O)O[C@@H](C)[C@]1(O)CC[C@]2(O)[C@@H]3CC[C@H]4C[C@@H](O[C@@H]5C[C@H](O)[C@H](O[C@H]6C[C@H](OC)[C@H](O[C@H]7C[C@@H](OC)[C@H](O[C@H]8C[C@@H](OC)[C@H](O[C@@H]9O[C@H](C)[C@@H](O[C@@H]%10O[C@H](CO)[C@@H](O)[C@H](O)[C@H]%10O)[C@H](OC)[C@H]9O)[C@@H](C)O8)[C@@H](C)O7)[C@@H](C)O6)[C@@H](C)O5)CC[C@]4(C)[C@H]3C[C@@H](OC(C)=O)[C@]12C [Telosmoside A15]
500	Pentadin
300	C[C@@H]1O[C@@H](O[C@H]2[C@H](Oc3cc(O)c(C(=O)CCc4ccc(O)cc4)c(O)c3)O[C@H](CO)[C@@H](O)[C@@H]2O)[C@H](O)[C@H](O)[C@H]1O [Naringin dihydrochalcone]
1,000	COc1ccc(CCC(=O)c2c(O)cc(O[C@@H]3O[C@H](CO)[C@@H](O)[C@H](O)[C@H]3O[C@@H]3O[C@@H](C)[C@H](O)[C@@H](O)[C@H]3O)cc2O)cc1O [Neohesperidin dihydrochalcone]
220	CC1(C(=O)O)C=C2C3CCC4C5(C=O)CCC(OC6OC(C(=O)O)C(O)C(O)C6OC6OCC(O)C(O)C6O)C(C)(C)C5CCC4(C)C3(C)CCC2(C)CC1 (stereo not shown) [Periandrin V]
30	Rebaudioside C
90	C=C1C[C@@]23CC[C@H]4[C@@](C)(CCC[C@@]4(C)C(=O)O)[C@@H]2CC[C@]1(O[C@@H]1O[C@H](CO)[C@@H](O)[C@H](O)[C@H]1O[C@@H]1O[C@H](CO)[C@@H](O)[C@H](O)[C@H]1O)C3 [Steviolbioside]
400	COc1ccc([C@H]2Cc3cccc(O)c3C(=O)O2)cc1O [Phyllodulcin]
95	Periandrin II
500	C[C@@H]1O[C@@H](O[C@H]2O[C@@H]([C@@H](C)C3CC[C@@H]4[C@H]5CC(=O)[C@@H]6C[C@H](O[C@@H]7O[C@H](CO)[C@@H](O)[C@H](O)[C@H]7O[C@@H]7O[C@@H](C)[C@H](O)[C@@H](O)[C@H]7O)CC[C@]6(C)[C@@H]5CC[C@]34C)CC[C@@H]2C)[C@H](O)[C@H](O)[C@H]1O (stereo partly shown) [Osladin]
35	Oc1ccc([C@H]2Oc3c(c(O)cc4c3[C@H]3c5c(O)cc(O)cc5O[C@@](c5ccc(O)cc5)(O4)[C@@H]3O)[C@H](c3c(O)cc(O)c4c3O[C@H](c3ccc(O)cc3)[C@@H](O)C4)[C@H]2O)cc1 [Selligueain A]
54	Scandenoside R6
ca. 1	C/C(=C\CC/C(C)=C/CO[C@@H]1O[C@H](CO)[C@@H](O)[C@H](O[C@@H]2O[C@@H](C)[C@H](O)[C@@H](O)[C@H]2O)[C@H]1O[C@@H]1O[C@@H](C)[C@H](O)[C@@H](O)[C@H]1O)CC/C=C(\C)CO[C@@H]1O[C@H](CO)[C@@H](O)[C@H](O[C@@H]2O[C@@H](C)[C@H](O)[C@@H](O)[C@H]2O)[C@H]1O[C@@H]1O[C@@H](C)[C@H](O)[C@@H](O)[C@H]1O [Mukurozioside IIb]
150	Rebaudioside B
85	Periandrin IV
55	C/C(=C\CO)CCC1=C(C=O)CC(OC2OCC(O)C(O)C2O)C2C(C)(CO)CCCC12C (stereo not shown) [Gaudichaudioside A]
